{"source": "paper PMC5122408", "about": "“High throughput chemical library screening identifies a novel p110-δ inhibitor that potentiates the anti-myeloma effect of bortezomib” (Oncotarget, 2016)", "key": {"[1]": {"test_system": "PKCγ", "assay": "Kinase inhibitory profile", "format": "biochemical", "conditions": "Class II PI3Ks; 10-point concentration assays"}, "[2]": {"test_system": "AMPK", "assay": "Kinase inhibitory profile", "format": "biochemical", "conditions": "Other Clinically-relevant Kinases; 10-point concentration assays"}, "[3]": {"test_system": "CCRF-CEM", "assay": "NCI-60 panel cell growth screen", "format": "cell-based, human", "conditions": "CCRF-CEM (Leukemia)"}, "[4]": {"test_system": "MOLT-4", "assay": "NCI-60 panel cell growth screen", "format": "cell-based, human", "conditions": "MOLT-4 (Leukemia)"}, "[5]": {"test_system": "NCI-H332M", "assay": "NCI-60 panel cell growth screen", "format": "cell-based, human", "conditions": "NCI-H332M (NSCLC)"}, "[6]": {"test_system": "NCI-H460", "assay": "NCI-60 panel cell growth screen", "format": "cell-based, human", "conditions": "NCI-H460 (NSCLC)"}, "[7]": {"test_system": "HCT-116", "assay": "NCI-60 panel cell growth screen", "format": "cell-based, human", "conditions": "HCT-116 (Colon cancer)"}, "[8]": {"test_system": "SNB-19", "assay": "NCI-60 panel cell growth screen", "format": "cell-based, human", "conditions": "SNB-19 (CNS Cancer)"}, "[9]": {"test_system": "SNB-75", "assay": "NCI-60 panel cell growth screen", "format": "cell-based, human", "conditions": "SNB-75 (CNS Cancer)"}, "[10]": {"test_system": "HL-60 (TB)", "conditions": "HL-60 (TB) (Leukemia)"}, "[11]": {"biological_target": "p110-α (Homo sapiens, UniProt P42336)", "sequence (P42336 whole entry)": "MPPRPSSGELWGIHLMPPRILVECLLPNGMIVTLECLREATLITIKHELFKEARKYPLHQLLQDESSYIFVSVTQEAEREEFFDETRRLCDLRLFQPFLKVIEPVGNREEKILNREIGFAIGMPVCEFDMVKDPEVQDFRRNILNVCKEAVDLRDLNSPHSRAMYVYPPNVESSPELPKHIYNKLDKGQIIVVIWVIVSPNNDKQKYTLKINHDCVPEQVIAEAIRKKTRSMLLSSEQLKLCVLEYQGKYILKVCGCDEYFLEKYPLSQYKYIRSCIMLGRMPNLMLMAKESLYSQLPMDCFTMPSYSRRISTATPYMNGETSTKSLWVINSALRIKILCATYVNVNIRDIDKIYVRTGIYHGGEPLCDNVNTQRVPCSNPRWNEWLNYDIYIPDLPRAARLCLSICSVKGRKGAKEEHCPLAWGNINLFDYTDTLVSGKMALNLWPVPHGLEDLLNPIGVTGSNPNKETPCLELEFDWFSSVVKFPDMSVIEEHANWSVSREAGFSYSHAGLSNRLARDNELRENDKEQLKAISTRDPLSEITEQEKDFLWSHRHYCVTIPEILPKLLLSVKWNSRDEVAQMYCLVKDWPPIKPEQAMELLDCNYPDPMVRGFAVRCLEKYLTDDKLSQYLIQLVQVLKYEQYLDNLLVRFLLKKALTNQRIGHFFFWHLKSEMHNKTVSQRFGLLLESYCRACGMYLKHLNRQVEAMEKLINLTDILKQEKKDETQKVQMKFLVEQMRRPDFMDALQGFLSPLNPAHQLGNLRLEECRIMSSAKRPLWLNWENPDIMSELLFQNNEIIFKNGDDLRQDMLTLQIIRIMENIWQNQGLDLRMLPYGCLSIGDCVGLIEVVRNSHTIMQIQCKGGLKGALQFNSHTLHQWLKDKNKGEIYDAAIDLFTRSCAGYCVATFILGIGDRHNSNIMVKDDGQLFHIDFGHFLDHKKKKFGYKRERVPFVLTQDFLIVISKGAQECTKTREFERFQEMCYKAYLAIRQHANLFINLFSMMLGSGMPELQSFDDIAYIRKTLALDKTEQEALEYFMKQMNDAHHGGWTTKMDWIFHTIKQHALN", "sequence (P27986 whole entry partner)": "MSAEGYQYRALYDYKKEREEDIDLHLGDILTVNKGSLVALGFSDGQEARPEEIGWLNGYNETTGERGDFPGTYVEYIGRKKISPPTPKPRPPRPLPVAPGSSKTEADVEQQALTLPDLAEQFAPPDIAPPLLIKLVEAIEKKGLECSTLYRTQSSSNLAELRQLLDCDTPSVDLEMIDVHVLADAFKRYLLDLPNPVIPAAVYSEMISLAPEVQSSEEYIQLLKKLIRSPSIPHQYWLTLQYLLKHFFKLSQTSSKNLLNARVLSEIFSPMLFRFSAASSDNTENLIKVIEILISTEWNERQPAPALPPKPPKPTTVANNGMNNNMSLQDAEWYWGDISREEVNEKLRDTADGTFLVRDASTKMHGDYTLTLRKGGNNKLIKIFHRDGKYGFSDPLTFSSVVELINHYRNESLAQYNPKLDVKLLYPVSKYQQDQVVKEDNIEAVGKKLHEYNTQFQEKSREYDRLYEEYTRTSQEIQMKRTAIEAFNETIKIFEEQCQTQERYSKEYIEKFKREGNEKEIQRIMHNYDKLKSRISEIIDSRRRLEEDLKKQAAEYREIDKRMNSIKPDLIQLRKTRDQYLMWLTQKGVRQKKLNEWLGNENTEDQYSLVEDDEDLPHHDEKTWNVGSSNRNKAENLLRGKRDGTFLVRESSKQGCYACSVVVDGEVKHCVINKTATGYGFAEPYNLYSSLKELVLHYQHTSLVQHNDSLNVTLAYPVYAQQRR", "assay": "Kinase inhibitory profile / PIP3 production", "parameters": "Inhibitory profile (kinase inhibition): key to the marks not given beside the values"}, "[12]": {"conditions": "read-out: LC50 (the source's name)"}}, "note": "Where two headings read alike, the source gives them in different places."}
{"substance": "N-[4-hydroxy-3-(8-quinolinylthio)-1-naphthyl]benzenesulfonamide [DT97]", "values": [{"measurement": "Inhibitory profile (kinase inhibition)", "setting": "[1]", "value": "none"}, {"measurement": "Inhibitory profile (kinase inhibition)", "setting": "[2]", "value": "+"}, {"measurement": "GI50", "setting": "[3]", "value": 426, "unit": "nM"}, {"measurement": "TGI", "setting": "[3]", "value": "1.60E-5"}, {"measurement": "Percent Growth", "setting": "[3]; log concentration −4.0", "value": "−7", "unit": "%"}, {"measurement": "Percent Growth", "setting": "[3]; log concentration −5.0", "value": 2, "unit": "%"}, {"measurement": "Percent Growth", "setting": "[3]; log concentration −6.0", "value": 17, "unit": "%"}, {"measurement": "Percent Growth", "setting": "[3]; log concentration −7.0", "value": 106, "unit": "%"}, {"measurement": "Percent Growth", "setting": "[3]; log concentration −8.0", "value": 104, "unit": "%"}, {"measurement": "CC50", "setting": "[3]; [12]", "value": "> 100000", "unit": "nM"}, {"measurement": "GI50", "setting": "[4]", "value": 546, "unit": "nM"}, {"measurement": "LC50", "setting": "[4]", "value": "> 100000", "unit": "nM"}, {"measurement": "TGI", "setting": "[4]", "value": "5.53E-6"}, {"measurement": "Percent Growth", "setting": "[4]; log concentration −4.0", "value": "−28", "unit": "%"}, {"measurement": "Percent Growth", "setting": "[4]; log concentration −5.0", "value": 9, "unit": "%"}, {"measurement": "Percent Growth", "setting": "[4]; log concentration −6.0", "value": 27, "unit": "%"}, {"measurement": "Percent Growth", "setting": "[4]; log concentration −7.0", "value": 116, "unit": "%"}, {"measurement": "Percent Growth", "setting": "[4]; log concentration −8.0", "value": 111, "unit": "%"}, {"measurement": "GI50", "setting": "[5]", "value": 2310, "unit": "nM"}, {"measurement": "LC50", "setting": "[5]", "value": 39400, "unit": "nM"}, {"measurement": "TGI", "setting": "[5]", "value": "1.37E-5"}, {"measurement": "Percent Growth", "setting": "[5]; log concentration −4.0", "value": "−94", "unit": "%"}, {"measurement": "Percent Growth", "setting": "[5]; log concentration −5.0", "value": 15, "unit": "%"}, {"measurement": "Percent Growth", "setting": "[5]; log concentration −6.0", "value": 70, "unit": "%"}, {"measurement": "Percent Growth", "setting": "[5]; log concentration −7.0", "value": 94, "unit": "%"}, {"measurement": "Percent Growth", "setting": "[5]; log concentration −8.0", "value": 94, "unit": "%"}, {"measurement": "GI50", "setting": "[6]", "value": 499, "unit": "nM"}, {"measurement": "TGI", "setting": "[6]", "value": "1.37E-5"}, {"measurement": "Percent Growth", "setting": "[6]; log concentration −4.0", "value": "−48", "unit": "%"}, {"measurement": "Percent Growth", "setting": "[6]; log concentration −5.0", "value": 7, "unit": "%"}, {"measurement": "Percent Growth", "setting": "[6]; log concentration −6.0", "value": 29, "unit": "%"}, {"measurement": "Percent Growth", "setting": "[6]; log concentration −7.0", "value": 98, "unit": "%"}, {"measurement": "Percent Growth", "setting": "[6]; log concentration −8.0", "value": 101, "unit": "%"}, {"measurement": "GI50", "setting": "[7]", "value": 555, "unit": "nM"}, {"measurement": "TGI", "setting": "[7]", "value": "2.80E-6"}, {"measurement": "Percent Growth", "setting": "[7]; log concentration −4.0", "value": "−92", "unit": "%"}, {"measurement": "Percent Growth", "setting": "[7]; log concentration −5.0", "value": "−43", "unit": "%"}, {"measurement": "Percent Growth", "setting": "[7]; log concentration −6.0", "value": 34, "unit": "%"}, {"measurement": "Percent Growth", "setting": "[7]; log concentration −7.0", "value": 95, "unit": "%"}, {"measurement": "Percent Growth", "setting": "[7]; log concentration −8.0", "value": 98, "unit": "%"}, {"measurement": "CC50", "setting": "[7]; [12]", "value": 14100, "unit": "nM"}, {"measurement": "GI50", "setting": "[8]", "value": 1980, "unit": "nM"}, {"measurement": "TGI", "setting": "[8]", "value": "2.14E-5"}, {"measurement": "Percent Growth", "setting": "[8]; log concentration −4.0", "value": "−59", "unit": "%"}, {"measurement": "Percent Growth", "setting": "[8]; log concentration −5.0", "value": 29, "unit": "%"}, {"measurement": "Percent Growth", "setting": "[8]; log concentration −6.0", "value": 59, "unit": "%"}, {"measurement": "Percent Growth", "setting": "[8]; log concentration −7.0", "value": 94, "unit": "%"}, {"measurement": "Percent Growth", "setting": "[8]; log concentration −8.0", "value": 95, "unit": "%"}, {"measurement": "CC50", "setting": "[8]; [12]", "value": 78300, "unit": "nM"}, {"measurement": "GI50", "setting": "[9]", "value": 3230, "unit": "nM"}, {"measurement": "TGI", "setting": "[9]", "value": "1.69E-5"}, {"measurement": "Percent Growth", "setting": "[9]; log concentration −4.0", "value": "−100", "unit": "%"}, {"measurement": "Percent Growth", "setting": "[9]; log concentration −5.0", "value": 29, "unit": "%"}, {"measurement": "Percent Growth", "setting": "[9]; log concentration −6.0", "value": 75, "unit": "%"}, {"measurement": "Percent Growth", "setting": "[9]; log concentration −7.0", "value": 73, "unit": "%"}, {"measurement": "Percent Growth", "setting": "[9]; log concentration −8.0", "value": 76, "unit": "%"}, {"measurement": "CC50", "setting": "[9]; [12]", "value": 41200, "unit": "nM"}, {"measurement": "GI50", "setting": "[10]", "value": 487, "unit": "nM"}, {"measurement": "TGI", "setting": "[10]", "value": "4.69E-6"}, {"measurement": "Percent Growth", "setting": "[10]; log concentration −4.0", "value": "−63", "unit": "%"}, {"measurement": "Percent Growth", "setting": "[10]; log concentration −5.0", "value": "−15", "unit": "%"}, {"measurement": "Percent Growth", "setting": "[10]; log concentration −6.0", "value": 31, "unit": "%"}, {"measurement": "Percent Growth", "setting": "[10]; log concentration −7.0", "value": 93, "unit": "%"}, {"measurement": "Percent Growth", "setting": "[10]; log concentration −8.0", "value": 99, "unit": "%"}, {"measurement": "CC50", "setting": "[10]; read-out: LC50", "value": 53100, "unit": "nM"}, {"measurement": "Inhibitory profile (kinase inhibition)", "setting": "[11]; Class I PI3Ks, 10-point concentration assays", "value": "++"}, {"measurement": "production of PIP3 (dose-dependent effect)", "setting": "[11]; p110-α isoform, Figure 4B", "value": "weaker activity"}]}
